Laboratory results from patent US20110229553A1, “Plant Extract with Pharmacological Profile for Treating or Preventing Diseases, Dysfunctions and Disorders of the Central Nervous System, Neurodegenerative Disorders and Sequel from Vascular Dementia” (priority 2010, published 2011).

Tested on: BALB/c mice MPTP induced tremor
Test: MPTP-induced tremor in BALB/c mice
Type: in vivo
Settings: extract 25 or 50 mg/kg, apomorphine 3 mg/kg
Description: Animals: Male adult mice, C57BL/6 and BALB/c strain (FEEPS) were used and maintain with water and foot ad libitum under controlled environment.
Treatments in BALB/c: MPTP (1-methyl-4-phenyl-1,2,3,6-tetrahydropyridine) 60 mg/kg (2×30 mg/kg) was administered intraperitonially (i.p.), twice, 16 h apart. Saline, DMSO 20%, Ptychopetalum olacoides extract 50 mg/kg (2×25 mg/kg), POEE 25 mg/kg (2×12.5 mg/kg) and apomorphine 3 mg/kg (2×1.5 mg/kg) were given 30 min before each MPTP administration. The animals received the first injections at 17:00 h and the second at 09:00 h the next day. The volume of injection was […] body weight. N=6.
Tremor in C57BL/6 and in BALB/c: Tremors were observed immediately after the administration of the second MPTP dose, with animals placed in a clear Plexiglas box (20 cm×20 cm×20 cm) for 45 min; tremor scores were noted every 3 min, with the highest score considered for the period. […]

CN1CCc2cccc3c2[C@H]1Cc1ccc(O)c(O)c1-3 [apomorphine]
total tremor duration: not affected
